One test concerns Enterobacter cloacae. It counts as cell-based.
Another test concerns Enterococcus faecium. It counts as cell-based.
Another test deals with Klebsiella pneumoniae. Type of test: cell-based.
The test system of test [1] is cell wall biosynthesis (UDP-MurNAc-pentapeptide) in S. aureus USA300. The test is described as follows: UDP-MurNAc-pentapeptide accumulation assay. Type of test: cell-based, Staphylococcus aureus. The note with it: S. aureus cultures exposed at 1xMIC. How it is done: The effect of cilagicin on cell wall biosynthesis was investigated by tracking the accumulation UDP-MurNAc-pentapeptide in antibiotic treated cultures. Overnight S. aureus USA300 cultures were diluted in fresh LB broth and grown at 37° C. to an OD600 nm of 0.5. They were then treated with 130 μg/mL of chloramphenicol. After incubating at 37° C. for 15 minutes, 1 μg/mL of cilagicin was added. Vancomycin (10 μg/mL) and DMSO were used as positive and vehicle control, respectively. After an incubation of 60 mins, cells (0.5 mL) were harvested, and the cell pellet was resuspended in 30 μL ddH2O. The cell suspension was incubated in boiling water for 15 minutes and spun down at 15,000×g for 5 minutes. The supernatant was then analyzed by UPLC-DAD-MS (Acquity UPLC BEH C18, 2.1×50 mm, 1.7 μM, 130 Å, […] isocratic elution at 97% water:acetonitrile (ACN) for 1 minute, then from 97% to 5% water:ACN over 3 minutes, with constant 0.1% formic acid; negative ionization modes).

The test system of test [2] is S. aureus USA300. It counts as cell-based, Staphylococcus aureus. How it is done:
The effect of lipid II biosynthesis intermediates on cilagicin's antibacterial activity was evaluated using S. aureus USA300 and the general MIC assay methods described above with the following changes. Potential antagonizing compounds were mixed with cilagicin at a constant molar ratio of 5. Cilagicin mixed with solvent alone was used as a control. Premixed solutions were dried in vacuo for 2 hours to completely remove all organic solvent. They were then resuspended in LB broth and mixed with S. aureus. All assays were run in duplicate (n=2) and repeated two independent times (n=2).

A short description of test [3]: Isothermal titration calorimetry (ITC). Type of test: binding. The note with it: 25° C., DOPC vesicles. How it is done:
Isothermal titration calorimetry (ITC) The interaction of cilagicin and undecaprenyl phosphate (C55-P, Larodan, SE) or undecaprenyl diphosphate (C55-PP, Larodan, SE) was measured using ITC. Briefly, 0.1 μm of large unilamellar vesicles (LUVs) was prepared by mixing 1,2-dioleoyl-sn-glycero-3-phosphocholine (DOPC, Avanti, AL) and 0.1% of either C55-P or C55-PP in chloroform/methanol (2:1). The resulting lipid suspension was dried under argon gas for 2 hours and then rehydrated in 10 mM HEPES buffer (pH 7.5, 100 mM NaCl). The dried sample was filtered 10 times through an Avanti mini extruder (Avanti, AL) using a 0.1 μM filter membrane. ITC binding experiments were performed using a MicroCal Auto-iTC200. A vesicle suspension of 0.27 μM C55-P or 0.25 μM C55-PP and 2.5 mM DOPC in HEPES buffer was titrated into a freshly made solution of 0.1 mM cilagicin in the same buffer. The titration was conducted under the following conditions: temperature 25° C., reference power 5 uCals-1, syringe-stirring speed 750 rpm, number of injections 19, injection volume 2 μl, and time between injections 150 s. The calorimetric data obtained from the Auto-iTC200 instrument was analyzed using AFFINImeter software. Thermodynamic parameters (enthalpy (AH), entropy (AS), and the equilibrium binding constant (KD)) were calculated using a one-binding site model.
On the technique in general: In ITC the heat of successive injections is recorded.

Test [4] in a line: Animal infection model (cilagicin, not further described). Type of test: in vivo.
The subject of test [5] is S. aureus USA300. The test is described as follows: Scanning electron microscopy of treated cells. It counts as cell-based, Staphylococcus aureus. The note with it: S. aureus USA300, 10x the MIC, 0-4 hours. How it is done:
S. aureus USA300 cultures at different time points from the time-kill curve analysis (FIG. 2A, 0, 1, 2, and 4 hours) were used in this study. 30 μl of each cell suspension was spotted onto 12 mm glass or Aclar film round coverslips. A drop of fixative (100 μl of 2% glutaraldehyde, 4% formaldehyde in 0.1 M sodium cacodylate buffer pH 7.2) was added on top of the coverslip which was coated with 0.1% polylysine. After 30 minutes, additional fixative was added to the dish containing the coverslips and samples were left at 4° C. overnight. Samples were gently washed three times with 0.1 M sodium cacodylate buffer (pH 7.2) for 5-10 minutes each time and postfixed with osmium tetroxide 1% in 0.1M sodium cacodylate buffer pH 7.2 for 1 hour at room temperature. After rinsing three times with buffer, samples were dehydrated in a graded series of ethanol concentrations (30%, 50%, 70%, 90%) for 10 minutes each and three times in 100% ethanol (with molecular sieves) for 15 minutes each and then further dried in a critical point drier (Tousimis Autosamdri 931, USA). Samples were coated with 10 nm of iridium using a Leica ACE600 sputter coater.

≈ marks a conversion by molar mass, not a printed value. Like-named read-outs stand apart in the source and are kept apart here. Positions of bridges follow the written chain, without caps; N, C: chain ends. Non-standard residues stand in square brackets, D forms with d. Residues, ends and D or L forms follow the SMILES beside them. *: point of attachment. Myristoyl = CCCCCCCCCCCCCC(=O)*; dDab = NCC[C@@H](N)C(=O)O; Dab = NCC[C@H](N)C(=O)O

In general, MIC refers to the lowest concentration that inhibits growth of the organism. Usually Kd stands for the constant that tells how readily two partners part at equilibrium.

Turning to `CCCCCCCCCCCCCC(=O)N[C@H](CO)C(=O)N[C@@H]1C(=O)N[C@H](CCN)C(=O)N[C@@H](CC(=O)O)C(=O)NCC(=O)N[C@H](CC(N)=O)C(=O)N[C@H](CC(=O)O)C(=O)NCC(=O)N[C@@H](Cc2ccc(O)cc2)C(=O)N[C@@H](C(C)C)C(=O)N[C@@H](CCN)C(=O)N[C@@H](Cc2ccccc2)C(=O)O[C@@H]1C` [Cilagicin] (Myristoyl-[dS]T[dDab]DG[dN][dD]GYV[Dab]F; ester 2-C), the “Cilagicin MIC” value in the test with Enterobacter cloacae is more than 64 µg/mL; with Enterococcus faecium, 0.5 µg/mL; with Klebsiella pneumoniae it was more than 64 µg/mL. Besides, the MIC with Enterococcus faecium is 0.5 µg/mL (≈ 0.341 µM). In addition, the “accumulation of UDP-MurNAc-pentapeptide (LCMS)” value in test [1] is “obvious accumulation”. For the same compound, in the test on S. aureus USA300 [2] (S. aureus USA300, C55-P), the “molar ratio at which C55-P completely inhibited the bioactivity” value is ~ 1.25. For the same compound, the “molar ratio at which C55-PP gave complete inhibition” value in the test on S. aureus USA300 [2] (S. aureus USA300, C55-PP) is recorded as ~ 2.5. The “MIC in the presence of C55-P” value in the test with S. aureus USA300 [2] (USA300) was not below 64 µg/mL. Besides, the Kd amounted to 22 nM in test [3] (read-out: dissociation constant (Kd), C55P) and 56 nM in test [3] (read-out: dissociation constant (Kd), C55PP). Besides, the bacterial burden result in test [4] is “did not reduce bacterial burden”. For the same compound, the “electron microscopy images of treated cells” value with S. aureus USA300 [5] is reported as “cell collapse over time”.

These data come from patent US20260193295A1, “CILAGICIN COMPOUNDS AND METHODS OF USE THEREOF” (priority 2022, published 2026).
